# Measured values reported in patent EP4410314A1, “COMBINATION THERAPY COMPRISING ANTI-CD22 ANTIBODY-DRUG CONJUGATE AND IRAK1 INHIBITOR” (ADC Therapeutics SA, priority 2023, dated 2024).
# Legend:
# KARPAS-299 [1] = experiment: DNA interstrand crosslinks, single cell gel electrophoresis (Comet) assay, KARPAS-299; assay type: cell-based, human; conditions: KARPAS-299 (CD22-negative), over 48 hours following a 2-hour treatment
# Method: (§1) Quantification of in vitro DNA interstrand crosslinks (ICLs) was performed using the single cell gel electrophoresis (Comet) assay.
# (§2) DNA ICLs were measured using a modification of the single-cell gel electrophoresis (Comet) assay, and crosslinking was expressed as the percentage decrease in Olive tail moment (OTM) versus control irradiated cells. […] Immediately after the drug incubation period, a low level of ICLs (3%) was observed, which increased over time to near peak levels (≈50%) at 12 hours and persisted up to 48 hours. […] In this cell line, SG3199 produced a high level of ICL (≈50%), similar to that observed in the Ramos cell line.
# GCB-DLBCL = experiment: In vitro cytotoxic activity, lymphoma cell line panel: GCB-DLBCL; assay type: cell-based, human; conditions: 20 cell lines, read-out: Median IC50
# [2] = tested on: Ramos, TMD8, and SU-DHL-4 cell lines; experiment: In vitro cytotoxicity following pretreatment with chidamide; assay type: cell-based; conditions: pretreatment with chidamide (0.25 or 0.5 µM) for 7 days, then ADC for 5 days
# Method: Chidamide (Selleckchem) was dissolved in dimethyl sulfoxide (DMSO) according to the manufacturer's instructions. Cells were treated with chidamide (0.25 or 0.5 µM) for 7 days at 37°C in a 5% carbon dioxide-gassed, humidified incubator. On day 3, cells were centrifuged, and fresh medium containing the corresponding concentrations of chidamide was added. The control group was treated with equal volumes of DMSO.
# Cell viability was measured with the CellTiter 96 Aqueous One Solution Cell Proliferation Assay (Promega). Data were normalized to untreated control cells. The IC50 values were determined using GraphPad software (GraphPad). The mean and standard errors of 3 independent IC50 values were determined.
# PTCL-NOS = experiment: In vitro cytotoxic activity, lymphoma cell line panel: PTCL-NOS; assay type: cell-based, human; conditions: 1 cell line, read-out: Median IC50
# SUP-T1 = experiment: In vitro cytotoxicity, SUP-T1; assay type: cell-based, human; conditions: SUP-T1 (T-LL), CD22-negative; mean ± SEM
# MZL = experiment: In vitro cytotoxic activity, lymphoma cell line panel: MZL; assay type: cell-based, human; conditions: 6 cell lines, read-out: Median IC50
# KARPAS-299 [3] = experiment: In vitro cytotoxicity, KARPAS-299; assay type: cell-based, human; conditions: KARPAS-299 (ALCL), CD22-negative; mean ± SEM
# HL = experiment: In vitro cytotoxic activity, lymphoma cell line panel: HL; assay type: cell-based, human; conditions: 3 cell lines, read-out: Median IC50
# PMBCL = experiment: In vitro cytotoxic activity, lymphoma cell line panel: PMBCL; assay type: cell-based, human; conditions: 1 cell line, read-out: Median IC50
# B-cell lymphomas = conditions: read-out: Median IC50, 48 cell lines
# ALCL = experiment: In vitro cytotoxic activity, lymphoma cell line panel: ALCL; assay type: cell-based, human; conditions: 5 cell lines, read-out: Median IC50
# CTCL = experiment: In vitro cytotoxic activity, lymphoma cell line panel: CTCL; assay type: cell-based, human; conditions: 3 cell lines, read-out: Median IC50
# Ramos xenograft = experiment: SC Ramos xenograft; assay type: in vivo, mice
# From the text: (§3) Ramos, WSU-DLCL2, and KARPAS-299 xenografts were established in 8- to 10-week-old female Fox Chase mice with severe combined immunodeficiency (Charles River Laboratories) by implanting 10^7 cells subcutaneously (SC) into their flanks. When group mean tumor volumes reached approximately 116 to 132 mm^3, mice were randomly allocated into groups to receive the test agent or vehicle. Each animal was euthanized when its tumor reached the end point volume or at the study end. The time to end point (TTE) for analysis was calculated for each mouse by the following equation: TTE (days) = ([log10(end point volume−intercept^(*)]/slope^(*)) [formula] where the * indicates the slope of the line obtained by linear regression of a log-transformed tumor growth data set.
# (§4) The log-rank test was used to analyze the significance of differences in TTE between the 2 groups. For the disseminated xenografts model, 10^7 REH cells were inoculated intravenously (IV) into 5- to 8-week-old female NOG mice (Taconic Biosciences). Test compounds were administered IV 4 days after tumor cell inoculation. Individual mice were euthanized, and an autopsy was performed when hind leg paralysis (a sign of leukemia development) occurred and/or the body weight decreased ≥20%. The study was terminated on day 62. The log-rank test was used to determine the significance of the differences in overall survival.
# GRANTA-519 = experiment: In vitro cytotoxicity, GRANTA-519; assay type: cell-based, human; conditions: GRANTA-519 (MCL), CD22-positive; mean ± SEM
# DO HH-2 = experiment: In vitro cytotoxicity, DO HH-2; assay type: cell-based, human; conditions: DO HH-2 (FL), CD22-positive; mean ± SEM
# B cells = experiment: B-cell depletion from circulation; assay type: in vivo; conditions: cynomolgus monkeys, after one ADCT-602 dose
# Ramos = experiment: In vitro cytotoxicity, Ramos; assay type: cell-based, human; conditions: Ramos (BL), CD22-positive; mean ± SEM
# NALM-6 = experiment: In vitro cytotoxicity, NALM-6; assay type: cell-based, human; conditions: NALM-6 (B-ALL), CD22-positive; mean ± SEM
# KM-H2 = experiment: In vitro cytotoxicity, KM-H2; assay type: cell-based, human; conditions: KM-H2 (HL), CD22-negative; mean ± SEM
# Daudi = experiment: In vitro cytotoxicity, Daudi; assay type: cell-based, human; conditions: Daudi (BL), CD22-positive; mean ± SEM
# ABC-DLBCL = experiment: In vitro cytotoxic activity, lymphoma cell line panel: ABC-DLBCL; assay type: cell-based, human; conditions: 6 cell lines, read-out: Median IC50
# [4] = tested on: CD22-negative KARPAS-299 cells; experiment: Bystander killing by conditioned medium transfer; assay type: cell-based, human; conditions: for percentage survival of KARPAS-299 cells: 96 hours incubation
# Method: The ADCT-602-conditioned medium elicited a bystander effect after 1 day of pretreatment, as shown by a decrease in the percentage survival in the conditioned medium-treated KARPAS-299 cells, compared with the nonconditioned medium (97% to 78%, P = .001). The bystander effect increased after 2 to 3 days of preincubation in Ramos cells, as shown by a further decrease in the percentage of cell survival compared with the nonconditioned medium (66% and 62%, P < .0001).
# MEC-2 = experiment: In vitro cytotoxicity, MEC-2; assay type: cell-based, human; conditions: MEC-2 (CLL), CD22-positive; mean ± SEM
# T-cell lymphomas = experiment: In vitro cytotoxic activity, lymphoma cell line panel: T-cell lymphomas; assay type: cell-based, human; conditions: 9 cell lines, read-out: Median IC50
# CLL = experiment: In vitro cytotoxic activity, lymphoma cell line panel: CLL; assay type: cell-based, human; conditions: 2 cell lines, read-out: Median IC50
# Ramos cells = experiment: DNA interstrand crosslinks, single cell gel electrophoresis (Comet) assay, Ramos; assay type: cell-based, human; conditions: 2-hour exposure
# Method: as §1, §2
# WSU-DLCL2 xenograft = experiment: SC WSU-DLCL2 xenograft model; assay type: in vivo, mice
# From the text: as §3, §4
# MCL = experiment: In vitro cytotoxic activity, lymphoma cell line panel: MCL; assay type: cell-based, human; conditions: 10 cell lines, read-out: Median IC50
# [5] = tested on: CD22-expressing Ramos cells; experiment: Cell surface binding, internalization and LAMP-1 colocalization; assay type: cell-based, human
# KARPAS-299 xenograft = experiment: SC KARPAS-299 xenograft model (CD22-negative); assay type: in vivo, mice; conditions: single 1 mg/kg dose; end of the study (day 29)
# From the text: as §3, §4
# NAMALWA = experiment: In vitro cytotoxicity, NAMALWA; assay type: cell-based, human; conditions: NAMALWA (BL), CD22-positive; mean ± SEM
# REH = experiment: In vitro cytotoxicity, REH; assay type: cell-based, human; conditions: REH (B-ALL), CD22-positive; mean ± SEM
# SEM cells = experiment: In vitro cytotoxicity, SEM; assay type: cell-based, human; conditions: SEM (B-ALL), CD22-positive; mean ± SEM
# REH cells = experiment: Disseminated B-ALL-derived xenograft model (REH); assay type: in vivo, mice
# Method: as §4
# [6] = single dose 1 mg/kg, end of the study (day 60)
# [7] = single dose 3 mg/kg, end of the study (day 59)
substance,measurement,setting,value
"ADCT-602: novel ADC targeting CD22 that consists of humanized monoclonal antibody hLL2-C220, sitespecifically conjugated to the pyrrolobenzodiazepine (PBD) dimer-based payload tesirine","DNA ICLs, percentage decrease in Olive tail moment (OTM) versus control irradiated cells",KARPAS-299 [1],≈ 15%
same,IC50,GCB-DLBCL,100 pM
same,improvement of ADCT-602 IC50 compared with cells pretreated with DMSO,[2],up to 2.5 fold
same,IC50,PTCL-NOS,700 pM
same,IC50,SUP-T1,9.34 ± 1.02 nM
same,IC50,MZL,62.5 pM
same,IC50,KARPAS-299 [3],51.7 ± 3.86 nM
same,IC50,HL,4500 pM
same,IC50,PMBCL,35 pM
same,IC50,B-cell lymphomas,200 pM
same,IC50,ALCL,2850 pM
same,IC50,CTCL,1750 pM
same,CRs,Ramos xenograft; [6],10/10
same,tumor-free survivors,Ramos xenograft; [6],9/10
same,antitumor activity compared with the vehicle and the isotype control ADC,Ramos xenograft; single dose at 0.3 and 1 mg/kg,specific and dose-dependent antitumor activity
same,IC50,GRANTA-519,0.02 ± 0.0005 nM
same,IC50,DO HH-2,0.06 ± 0.009 nM
same,depletion of B cells from circulation,B cells,efficiently depleted
same,IC50,Ramos,0.06 ± 0.021 nM
same,IC50,NALM-6,0.11 ± 0.018 nM
same,IC50,KM-H2,11.4 ± 1.11 nM
same,IC50,Daudi,0.07 ± 0.021 nM
same,IC50,ABC-DLBCL,395 pM
same,change in percentage of cell survival compared with the nonconditioned medium,"[4]; conditioned medium from ADCT-602-treated, CD22-negative NCI-N87 cells",no significant change
same,percentage survival of KARPAS-299 cells,[4]; conditioned medium from Ramos cells treated with ADCT-602 for 1 day,78%
same,percentage survival of KARPAS-299 cells,[4]; conditioned medium from Ramos cells treated with ADCT-602 for 2 days,66%
same,percentage survival of KARPAS-299 cells,[4]; conditioned medium from Ramos cells treated with ADCT-602 for 3 days,62%
same,percentage survival of KARPAS-299 cells,"[4]; nonconditioned medium, comparator for 1 day pretreatment",97%
same,IC50,MEC-2,0.18 ± 0.05 nM
same,IC50,T-cell lymphomas,1850 pM
same,IC50,CLL,230 pM
same,"DNA ICLs, percentage decrease in Olive tail moment (OTM) versus control irradiated cells",Ramos cells; immediately after the drug incubation period,3%
same,"DNA ICLs, percentage decrease in Olive tail moment (OTM) versus control irradiated cells",Ramos cells; peak / near peak level at 12 hours,≈ 50%
same,CRs,WSU-DLCL2 xenograft; [7],7/10
same,partial responders,WSU-DLCL2 xenograft; [7],3/10
same,tumor-free survivors,WSU-DLCL2 xenograft; [7],2/10
same,antitumor activity compared with the vehicle and the isotype control ADC,WSU-DLCL2 xenograft; single dose at 1 and 3 mg/kg,dose-dependent antitumor activity
same,IC50,MCL,375 pM
same,internalization and trafficking to lysosomes,"[5]; 37°C, 1- and 2-hour time points",cellular internalization and colocalization of ADCT-602 with LAMP-1
same,residual ADC staining,[5]; 24 hours,no residual ADC staining
same,cell surface (membrane) binding,[5]; T 0 hours,prominent cell surface binding
same,antitumor activity compared with the vehicle group,KARPAS-299 xenograft,no significant antitumor activity
same,IC50,NAMALWA,2.27 ± 0.052 nM
same,IC50,REH,0.05 ± 0.006 nM
same,IC50,SEM cells,0.52 ± 0.08 nM
same,"survival time, single dose versus equivalent fractionated dose","REH cells; single 1.3 mg/kg versus 0.45 mg/kg, every 4 days, for 3 times [Q4D×3]",comparable survival time
same,survival compared with the vehicle and the isotype control ADC,REH cells; single dose at 0.45 mg/kg and 1.3 mg/kg IV,dose-dependent extension of survival
